The nature of the data set: UV absorbance of sunscreen compositions (FIG. 9). Format: physicochemical. An excerpt:
FIG. 9 depicts the UV absorbance of two specific suncreen compositions.
Thus, to adequately protect human skin from the UV-induced enzymes that degrade the collagen matrix, and which inhibit collagen biosynthesis, a sunscreen formulation must block both radiation of less then 325 nm and that between about 360 nm and 400 nm. In our prior application Ser. No. 09/089,914, we proposed a sunscreen comprising a UVB blocker such as PARSOL MCX and a UVA blocker such as PARSOL 1789. Other UVB blockers known in the art, and in light of the information provided herein, are also suitable. However, various UVA blockers, including PARSOL 1789 and various others such as TINOSORB brand blockers (available from Ciba, Basel, Switzerland) are relatively broadband blockers and while blocking some of the UVA radiation in the >360-400 nm range, are not optimized for that region. […] As noted above, these wavelengths are greater than the 360 nm the industry desires to block with its compounds, because it is generally believed that a broad band absorber will provide the desired blocking effects. To the contrary, we have shown that it is sufficient to block narrow bands of UV radiation, namely 295-325 nm in the UVB, more preferably 305-325 nm, and those wavelengths above 360 nm in the UVA, and that blocking these wavelengths achieves the desired prevention of UV-induced […] of MMPs in human skin.

With `COc1ccc(C(=O)CC(=O)c2ccc(C(C)(C)C)cc2)cc1` [PARSOL 1789], the UV absorbance result (UVA1 area of 340-360 nm) was “appears adequate”, the UV absorbance entry (area of 390-400 nm) is “almost no absorbance”, the UV absorbance entry (at 370 nm) is recorded as “falls off” and the UV absorbance result (to 380 nm) was “falls off dramatically”.

For the origin of these results see patent publication US20060269491A1, “UVA (> 360-400) and UVB (300-325) specific sunscreens” (priority 2000, published 2006).
